The text below walks through data of patent US20250188076A1, “SOLID STATE FORMS OF TOLEBRUTINIB AND OF TOLEBRUTINIB SALTS” (TEVA PHARMACEUTICAL INTERNATIONAL GMBH, priority 2022, published 2025).

A short description of the data set: Solubility comparison in water and aqueous acetate buffer at pH 4.5.

The solubility is how much of the substance goes into solution per volume. Low readings indicate little dissolved substance, high ones much dissolved substance. Turning to Tolebrutinib [Tolebrutinib Form CSI], the solubility is under 200 µg/mL.
